Source: patent US8633199B2, “Medicine consisting of concomitant use or combination of DPP-IV inhibitor and other diabetic medicine” (Sanwa Kagaku Kenkyusho Co., Ltd., priority 2008, dated 2014)

Tests used:
Format in all cases: in vivo, rat
ZDF rats = assay: Oral corn starch loading test, plasma active GLP-1, glucose and insulin; details: oral compound (I) 3 mg/kg, Metformin 300 mg/kg, 15 min before corn starch loading, AUC 0-180 min; for increase of the concentration of the active GLP-1 in the plasma (AUC of change): FIG. 5; for plasma glucose elevation (AUC): FIG. 6
Method: An operation to insert a polyurethane catheter was performed on the right jugular vein of a ZDF rat (13 weeks old, male, Charles River Laboratories Japan, Inc.), and experiments were performed in the following four groups. (1) Control group: purified water was administered at a ratio of 5 ml/kg (2) Compound (I) group: the compound (I) dissolved in purified water was administered at a dose of 3 mg/kg (5 ml/kg) […] Metformin dissolved in purified water was administered at a dose of 300 mg/kg (5 ml/kg) (4) Concomitant use group: the compound (I) and Metformin dissolved in purified water were administered at respective doses of 3 mg/kg (5 ml/kg) and 300 mg/kg (5 ml/kg) […] Blood was collected from the catheter immediately before administration and after administration of corn starch, and centrifuged at 4° C., 3000 rpm for 10 minutes to obtain plasma. The concentration of the active GLP-1 in the obtained blood plasma was measured by ELISA (GLUCAGON-LIKE PEPTIDE-1 (ACTIVE) ELISA KIT, LINCO Research, Inc., US), the plasma glucose and insulin concentrations of the obtained plasma was measured by Glucose C2 (Wako Pure Chemical Industries, Ltd., Japan) and ELISA (Rat Insulin ELISA Kit, Shibayagi, Co., Ltd., Japan), respectively. Based on the measured concentration of the active GLP-1 in the plasma, the amount of change relative to the concentration immediately before starch administration was obtained. Based on the amount of change relative to the plasma active GLP-1, glucose and insulin concentrations, AUC from immediately before the administration of starch to 180 minutes after the administration was calculated. The result of the plasma active GLP-1 concentration is shown in FIG. 5, the result of the plasma glucose concentration is shown in FIG. 6 and the result of the plasma insulin concentration is shown in FIG. 7.

Zucker fatty rats [1] = assay: Oral sucrose loading test, plasma active GLP-1 (ELISA); details: oral 3 mg/kg each drug 15 min before sucrose loading, AUC 0-120 min, FIG. 1
Method: Effects of compound (I) alone, Miglitol alone and concomitant use of compound (I) and Miglitol on plasma concentration of active GLP-1 during oral sucrose loading test in Slc: Zucker-fa/fa rats (hereinafter abbreviated as Zucker fatty rats)
An operation to insert a polyurethane catheter was performed on the right jugular vein of a Zucker fatty rat (9 weeks old, male, Japan SLC, Inc.) which is an obesity-insulin resistant model, and experiments were performed in the following four groups.
(§1) (1) Control group: purified water was administered at a ratio of 5 ml/kg
(§2) (2) Compound (I) group: the compound (I) dissolved in purified water was administered at a dose of 3 mg/kg (5 ml/kg)
(§3) (3) Miglitol group: Miglitol dissolved in purified water was administered at a dose of 3 mg/kg (5 ml/kg)
(§4) (4) Concomitant use group: the compound (I) and Miglitol dissolved in purified water were administered at respective dose of 3 mg/kg (5 ml/kg)
Purified water, the compound (I) and Miglitol were orally administered respectively to the Zucker fatty rats fasted overnight in each group as described in (1) to (4), and after 15 minutes, a 30% aqueous sucrose solution was administered at a ratio of 10 ml/kg. […] The concentration of an active GLP-1 in the obtained plasma was measured by an enzyme immunoassay (hereinafter abbreviated as ELISA) (GLUCAGON-LIKE PEPTIDE-1 (ACTIVE) ELISA KIT, LINCO Research, Inc., US). […]

Wistar rats = assay: Oral corn starch loading test, plasma GIP (ELISA); details: oral compound (I) 3 mg/kg, Metformin 300 mg/kg, 30 min before corn starch loading, AUC 0-180 min, FIG. 8
Method: Effects of compound (I) alone, Metformin alone and concomitant use of compound (I) and Metformin on concentration of GIP in plasma during oral corn starch loading test in Slc: Wistar/ST rats (hereinafter abbreviated as Wistar rats) An operation to insert a polyurethane catheter was performed on the right jugular vein of a Wistar rat (9 weeks old, male, Japan SLC, Inc.), and experiments were performed in the following four groups. (1) Control group: purified water was administered at a ratio of 5 ml/kg (2) Compound (I) group: the compound (I) dissolved in purified water was administered at a dose of 3 mg/kg (5 ml/kg) […] Metformin dissolved in purified water was administered at a dose of 300 mg/kg (5 ml/kg) (4) Concomitant use group: the compound (I) and Metformin dissolved in purified water were administered at respective doses of 3 mg/kg (5 ml/kg) and 300 mg/kg (5 ml/kg) […] Blood was collected from the catheter immediately before administration and after administration of corn starch, and centrifuged at 4° C., 3000 rpm for 10 minutes to obtain plasma. The concentration of the GIP in the obtained plasma was measured by ELISA (RAT/MOUSE GIP (TOTAL) ELISA KIT, LINCO Research, Inc., US). Based on the measured GIP concentration, AUC from immediately before the administration of starch to 180 minutes after the administration was calculated.

Zucker fatty rats [2] = assay: Liquid diet loading test, plasma GIP, glucose and insulin; details: oral 3 mg/kg each drug 15 min before liquid diet loading; for increase in the plasma glucose concentration (AUC): AUC 0-60 min, FIG. 3; for increase in the GIP concentration in plasma (AUC, total GIP): AUC 0-120 min, FIG. 2
Method: Effects of compound (I) alone, Miglitol alone and concomitant use of compound (I) and Miglitol on GIP, glucose and insulin concentrations in plasma during liquid diet loading test in Crlj: ZUC-Lepr^fa Genotype: fa/fa rats (hereinafter abbreviated as Zucker fatty rats)
An operation to insert a polyurethane catheter was performed on the right jugular vein of a Zucker fatty rat (8 weeks old, male, Charles River Laboratories Japan, Inc.), which is an obesity and insulin-resistant model, and experiments were performed in the following four groups.
as §1, §2, §3, §4
Purified water, the compound (I) and Miglitol were orally administered respectively to the Zucker fatty rats fasted overnight in each group as described in (1) to (4), and after 15 minutes, a liquid diet (trade mark: ENSURE H, Meiji Dairies Corporation, Japan) was administered at a ratio of 10 ml/kg to carry out a diet loading test. Blood was collected from the catheter immediately before loading and after loading of the liquid diet, and centrifuged at 4° C., 3000 rpm for 10 minutes to obtain plasma. The GIP concentration in the obtained plasma was measured by an ELISA (RAT/MOUSE GIP (TOTAL) ELISA KIT, LINCO Research, Inc., US), and the plamsa glucose and insulin concentrations was measured by Glucose C2 (Wako Pure Chemical Industries, Ltd., Japan) and ELISA (Rat Insulin ELISA Kit, Shibayagi, Co., Ltd., Japan), respectively. Based on the measured GIP concentration in plasma, AUC from immediately before the loading of the liquid diet to 120 minutes after the loading was calculated. Based on the measured plasma glucose and insulin concentrations, AUC from immediately before the loading of the liquid diet to 60 minutes after the loading was calculated. […] The result of the GIP concentration in plasma is shown in FIG. 2, the result of the plasma glucose level is shown in FIG. 3 and the result of the plasma insulin concentration is shown in FIG. 4.

Structure (SMILES): Cc1cc2ncc(C(=O)NCC(C)(C)NCC(=O)N3CCC[C@H]3C#N)cn2n1 [compound (I), (S)—N-(2-(2-(2-cyanopyrrolidin-1-yl)-2-oxoethylamino)-2-methylpropyl)-2-methylpyrazolo[1,5-a]pyrimidine-6-carboxamide]
- increase of the concentration of the active GLP-1 in the plasma (AUC of change) (ZDF rats): increased the concentration significantly
- plasma glucose elevation (AUC) (ZDF rats): no significant difference
- increase of the concentration of the active GLP-1 in the plasma (AUC of change) (Zucker fatty rats [1]): increased the concentration significantly
- increase in the concentration of GIP in plasma (AUC, total GIP) (Wistar rats): no change
- increase in the plasma glucose concentration (AUC) (Zucker fatty rats [2]): no significant difference
- increase in the GIP concentration in plasma (AUC, total GIP) (Zucker fatty rats [2]): no change

Structure (SMILES): OCCN1C[C@H](O)[C@@H](O)[C@H](O)[C@H]1CO [Miglitol]
- increase of the concentration of the active GLP-1 in the plasma (AUC of change) (Zucker fatty rats [1]): no significant difference
- increase in the plasma glucose concentration (AUC) (Zucker fatty rats [2]): no significant difference
- increase in the GIP concentration in plasma (AUC, total GIP) (Zucker fatty rats [2]): showed a tendency of suppressing

Structure (SMILES): CN(C)C(=N)N=C(N)N [Metformin]
- increase of the concentration of the active GLP-1 in the plasma (AUC of change) (ZDF rats): no significant difference
- plasma glucose elevation (AUC) (ZDF rats): significantly suppressed
- increase in the concentration of GIP in plasma (AUC, total GIP) (Wistar rats): significantly suppressed
